Patent publication US10167262B2, “Herbicidal substituted 3-arylpyrazoles” (FMC CORPORATION, priority 2014, dated 2019)
Read-outs that look alike come from different tables or passages of the source.

Assays:
Assay type in all cases: in vivo
[1] = tested on: blackgrass (Alopecurus myosuroides); experiment: Test C pre-/postemergence greenhouse test, plant response rating 0-100; conditions: Alopecurus myosuroides; for pest or weed control at 62 g/ha: 62 g ai/ha; for pest or weed control at 125 g/ha: 125 g ai/ha; for pest or weed control at 250 g/ha: 250 g ai/ha;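 on all read-outs here: 0 is no effect and 100 is complete control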
Method in brief: (§1)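 Two application timings: preemergence onto seeded loam/sand soil and postemergence onto plants at the 1–4 leaf stage (2–18 cm) in peat/vermiculite medium. Formulation: non-phytotoxic solvent with surfactant. Read-out: visual control rating, 0–100, at 13–15 days after treatment.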

corn (Zea mays) = experiment: as above; conditions: Zea mays; for Corn plant response rating (crop injury, 0 = no effect, 100 = complete kill) at 250 g/ha: 250 g ai/ha
Method in brief: as §1

[2] = tested on: giant foxtail (Setaria faberii); experiment: as above; conditions: Setaria faberi; for pest or weed control at 62 g/ha: 62 g ai/ha; for pest or weed control at 125 g/ha: 125 g ai/ha; for pest or weed control at 250 g/ha: 250 g ai/ha
Method in brief: as §1

[3] = tested on: johnsongrass (Sorghum halepense); experiment: as above; conditions: Sorghum halepense; for pest or weed control at 62 g/ha: 62 g ai/ha; for pest or weed control at 125 g/ha: 125 g ai/ha; for pest or weed control at 250 g/ha: 250 g ai/ha
Method in brief: as §1

[4] = tested on: lambsquarters (Chenopodium album); experiment: as above; conditions: Chenopodium album; for pest or weed control at 62 g/ha: 62 g ai/ha; for pest or weed control at 125 g/ha: 125 g ai/ha; for pest or weed control at 250 g/ha: 250 g ai/ha
Method in brief: as §1

[5] = tested on: morningglory (Ipomoea coccinea); experiment: as above; conditions: Ipomoea; for pest or weed control at 62 g/ha: 62 g ai/ha; for pest or weed control at 125 g/ha: 125 g ai/ha; for pest or weed control at 250 g/ha: 250 g ai/ha
Method in brief: as §1

[6] = tested on: pigweed (Amaranthus retroflexus); experiment: as above; conditions: Amaranthus retroflexus; for pest or weed control at 62 g/ha: 62 g ai/ha; for pest or weed control at 125 g/ha: 125 g ai/ha; for pest or weed control at 250 g/ha: 250 g ai/ha
Method in brief: as §1

soybean (Glycine max) = experiment: as above; conditions: Glycine max; for plant injury at 62 g/ha: 62 g ai/ha; for plant injury at 125 g/ha: 125 g ai/ha; for plant injury at 250 g/ha: 250 g ai/ha
Method in brief: as §1

[7] = tested on: velvetleaf (Abutilon theophrasti); experiment: as above; conditions: Abutilon theophrasti; for pest or weed control at 62 g/ha: 62 g ai/ha; for pest or weed control at 125 g/ha: 125 g ai/ha; for pest or weed control at 250 g/ha: 250 g ai/ha
Method in brief: as §1

[8] = tested on: winter wheat (Triticum aestivum); experiment: as above; conditions: Triticum aestivum; for plant injury at 62 g/ha: 62 g ai/ha; for plant injury at 125 g/ha: 125 g ai/ha; for plant injury at 250 g/ha: 250 g ai/ha
Method in brief: as §1

[9] = tested on: chickweed (common chickweed, Stellaria media); experiment: Test C postemergence greenhouse test, plant response rating 0-100; conditions: Stellaria media, post-emergence
Method in brief: (§2)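 Formulated compounds applied postemergence; plants 1- to 4-leaf stage. Evaluated visually vs. untreated controls after roughly two weeks (13–15 d) under greenhouse conditions; 100 denotes complete control.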

kochia (Kochia scoparia) = experiment: as above; conditions: Bassia scoparia, post-emergence
Method in brief: as §2

wild oat (Avena fatua) = experiment: as above; conditions: Avena fatua, post-emergence
Method in brief: as §2

[10] = post-emergence, Postemergence, scale 0 to 100
[11] = pre-emergence, Preemergence, read-out: Plant response rating, Blackgrass
[12] = pre-emergence, Preemergence, 500 g ai/ha
[13] = post-emergence, Postemergence, read-out: Plant response rating (0 to 100), Foxtail, Giant
[14] = pre-emergence, Preemergence, read-out: Plant response rating, Foxtail, Giant
[15] = post-emergence, Postemergence, read-out: Plant response rating (0 to 100), Johnsongrass
[16] = pre-emergence, Preemergence, read-out: Plant response rating, Johnsongrass
[17] = post-emergence, Postemergence, read-out: Plant response rating (0 to 100), Lambsquarters
[18] = pre-emergence, Preemergence, read-out: Plant response rating, Lambsquarters
[19] = post-emergence, Postemergence, read-out: Plant response rating (0 to 100), Morningglory
[20] = pre-emergence, Preemergence, read-out: Plant response rating, Morningglory
[21] = post-emergence, Postemergence, read-out: Plant response rating (0 to 100), Pigweed
[22] = pre-emergence, Preemergence, read-out: Plant response rating, Pigweed
[23] = post-emergence, Postemergence, read-out: Plant response rating (0 to 100), Soybean
[24] = pre-emergence, Preemergence, read-out: Plant response rating, Soybean
[25] = post-emergence, Postemergence, read-out: Plant response rating (0 to 100), Velvetleaf
[26] = pre-emergence, Preemergence, read-out: Plant response rating, Velvetleaf
[27] = post-emergence, Postemergence, read-out: Plant response rating (0 to 100), Wheat
[28] = pre-emergence, Preemergence, read-out: Plant response rating, Wheat

Clc1cc(Cl)cc(-c2n[nH]cc2C(=NN2CCCC2)c2ccccc2)c1 [Compound 30, N-[[3-(3,5-dichlorophenyl)-1H-pyrazol-4-yl]phenylmethylene]-1-pyrrolidinamine]
pest or weed control at 31 g/ha ([1]; post-emergence, Postemergence, 31 g ai/ha, read-out: Plant response rating (0 to 100), Blackgrass): 0%
pest or weed control at 62 g/ha ([1]; post-emergence, Postemergence, read-out: Plant response rating (0 to 100), Blackgrass): 0%
pest or weed control at 125 g/ha ([1]; post-emergence, Postemergence, scale 0 to 100, read-out: Plant response rating, Blackgrass): 0%
pest or weed control at 250 g/ha [1, 10]: 0%
pest or weed control at 62 g/ha [1, 11]: 0%
pest or weed control at 125 g/ha [1, 11]: 0%
pest or weed control at 250 g/ha ([1]; pre-emergence, Preemergence): 0%
pest or weed control at 500 g/ha [1, 12]: 0%
plant injury at 31 g/ha (corn (Zea mays); post-emergence, Postemergence, 31 g ai/ha): 0%
plant injury at 62 g/ha (corn (Zea mays); post-emergence, Postemergence, 62 g ai/ha): 0%
plant injury at 125 g/ha (corn (Zea mays); post-emergence, Postemergence, 125 g ai/ha): 0%
Corn plant response rating (crop injury, 0 = no effect, 100 = complete kill) at 250 g/ha (corn (Zea mays); [10]): 0%
Corn plant response rating (crop injury, 0 = no effect, 100 = complete kill) at 62 g/ha (corn (Zea mays); pre-emergence, Preemergence, 62 g ai/ha): 0%
Corn plant response rating (crop injury, 0 = no effect, 100 = complete kill) at 125 g/ha (corn (Zea mays); pre-emergence, Preemergence, 125 g ai/ha): 0%
Corn plant response rating (crop injury, 0 = no effect, 100 = complete kill) at 250 g/ha (corn (Zea mays); pre-emergence, Preemergence): 0%
Corn plant response rating (crop injury, 0 = no effect, 100 = complete kill) at 500 g/ha (corn (Zea mays); [12]): 0%
pest or weed control at 31 g/ha ([2]; post-emergence, Postemergence, 31 g ai/ha, read-out: Plant response rating (0 to 100), Foxtail, Giant): 0%
pest or weed control at 62 g/ha [2, 13]: 0%
pest or weed control at 125 g/ha [2, 13]: 0%
pest or weed control at 250 g/ha [2, 10]: 0%
pest or weed control at 62 g/ha [2, 14]: 0%
pest or weed control at 125 g/ha [2, 14]: 0%
pest or weed control at 250 g/ha ([2]; pre-emergence, Preemergence): 0%
pest or weed control at 500 g/ha [2, 12]: 0%
pest or weed control at 62 g/ha [3, 15]: 0%
pest or weed control at 125 g/ha [3, 15]: 0%
pest or weed control at 250 g/ha [3, 10]: 0%
pest or weed control at 62 g/ha [3, 16]: 0%
pest or weed control at 125 g/ha [3, 16]: 0%
pest or weed control at 250 g/ha ([3]; pre-emergence, Preemergence): 0%
pest or weed control at 500 g/ha [3, 12]: 0%
pest or weed control at 62 g/ha [4, 17]: 60%
pest or weed control at 125 g/ha [4, 17]: 80%
pest or weed control at 250 g/ha [4, 10]: 100%
pest or weed control at 62 g/ha [4, 18]: 100%
pest or weed control at 125 g/ha [4, 18]: 100%
pest or weed control at 250 g/ha ([4]; pre-emergence, Preemergence): 100%
pest or weed control at 500 g/ha [4, 12]: 100%
pest or weed control at 62 g/ha [5, 19]: 0%
pest or weed control at 125 g/ha [5, 19]: 0%
pest or weed control at 250 g/ha [5, 10]: 0%
pest or weed control at 62 g/ha [5, 20]: 10%
pest or weed control at 125 g/ha [5, 20]: 15%
pest or weed control at 250 g/ha ([5]; pre-emergence, Preemergence): 15%
pest or weed control at 500 g/ha [5, 12]: 15%
pest or weed control at 62 g/ha [6, 21]: 100%
pest or weed control at 125 g/ha [6, 21]: 100%
pest or weed control at 250 g/ha [6, 10]: 100%
pest or weed control at 62 g/ha [6, 22]: 60%
pest or weed control at 125 g/ha [6, 22]: 98%
pest or weed control at 250 g/ha ([6]; pre-emergence, Preemergence): 100%
pest or weed control at 500 g/ha [6, 12]: 100%
plant injury at 62 g/ha (soybean (Glycine max); [23]): 0%
plant injury at 125 g/ha (soybean (Glycine max); [23]): 0%
plant injury at 250 g/ha (soybean (Glycine max); [10]): 0%
plant injury at 62 g/ha (soybean (Glycine max); [24]): 0%
plant injury at 125 g/ha (soybean (Glycine max); [24]): 0%
plant injury at 250 g/ha (soybean (Glycine max); pre-emergence, Preemergence): 0%
plant injury at 500 g/ha (soybean (Glycine max); [12]): 0%
pest or weed control at 62 g/ha [7, 25]: 85%
pest or weed control at 125 g/ha [7, 25]: 85%
pest or weed control at 250 g/ha [7, 10]: 98%
pest or weed control at 62 g/ha [7, 26]: 65%
pest or weed control at 125 g/ha [7, 26]: 70%
pest or weed control at 250 g/ha ([7]; pre-emergence, Preemergence): 75%
pest or weed control at 500 g/ha [7, 12]: 100%
plant injury at 62 g/ha [8, 27]: 0%
plant injury at 125 g/ha [8, 27]: 0%
plant injury at 250 g/ha [8, 10]: 0%
plant injury at 62 g/ha [8, 28]: 0%
plant injury at 125 g/ha [8, 28]: 0%
plant injury at 250 g/ha ([8]; pre-emergence, Preemergence): 0%
pest or weed control at 31 g/ha ([9]; 31 g ai/ha): 100%
pest or weed control at 62 g/ha ([9]; 62 g ai/ha): 100%
pest or weed control at 125 g/ha ([9]; 125 g ai/ha): 100%
pest or weed control at 250 g/ha ([9]; 250 g ai/ha, scale 0 to 100): 100%
pest or weed control at 62 g/ha (kochia (Kochia scoparia); 62 g ai/ha): 40%
pest or weed control at 125 g/ha (kochia (Kochia scoparia); 125 g ai/ha): 85%
pest or weed control at 250 g/ha (kochia (Kochia scoparia); 250 g ai/ha, scale 0 to 100): 98%
pest or weed control at 62 g/ha (wild oat (Avena fatua); 62 g ai/ha): 0%
pest or weed control at 125 g/ha (wild oat (Avena fatua); 125 g ai/ha): 0%
pest or weed control at 250 g/ha (wild oat (Avena fatua); 250 g ai/ha, scale 0 to 100): 0%
